Tested on: ATF4 luciferase reporter
Test: ATF4-Luc assay in HEK293T cells carrying the ATF4 luciferase reporter (in vitro model of VWMD)
Format: cell-based, human
Conditions: Homo sapiens, HEK-293T, 1 μg/mL tunicamycin, 7 hours, luminescence (One Glo)
Summary of the method: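 Stable HEK293T line with human ATF4 5′-UTR–firefly luciferase reporter treated with 1 μg/mL tunicamycin plus 200 nM compound for 7 h. Luminescence read; EC50 derived.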

| SMILES | EC50 [nM] |
| --- | --- |
| O=C(COc1ccc(Cl)c(F)c1)NC12CC(C(=O)NCc3ccno3)(C1)C2 [Compound 222, 3-[2-(4-chloro-3-fluorophenoxy)acetamido]-N-[(1,2-oxazol-5-yl)methyl]bicyclo[1.1.1]pentane-1-carboxamide] | > 2000 |
| O=C(COc1ccc(Cl)c(F)c1)NC12CC(C(=O)NCc3nnc4n3CCCC4)(C1)C2 [Compound 223, 3-[2-(4-chloro-3-fluorophenoxy)acetamido]-N-[(5,6,7,8-tetrahydro[1,2,4]triazolo[4,3-a]pyridin-3-yl)methyl]bicyclo[1.1.1]pentane-1-carboxamide] | > 2000 |
| O=C(COc1ccc(Cl)c(F)c1)NC12CC(C(=O)NCc3ccccn3)(C1)C2 [Compound 224, 3-[2-(4-chloro-3-fluorophenoxy)acetamido]-N-[(pyridin-2-yl)methyl]bicyclo[1.1.1]pentane-1-carboxamide] | > 2000 |
| O=C(COc1ccc(Cl)c(F)c1)NC12CC(C(=O)NCc3ccc(OC(F)(F)F)cc3)(C1)C2 [Compound 225, 3-[2-(4-chloro-3-fluorophenoxy)acetamido]-N-{[4-(trifluoromethoxy)phenyl]methyl}bicyclo[1.1.1]pentane-1-carboxamide] | > 2000 |
| N#Cc1ccc(CNC(=O)C23CC(NC(=O)COc4ccc(Cl)c(F)c4)(C2)C3)cn1 [Compound 226, 3-[2-(4-chloro-3-fluorophenoxy)acetamido]-N-[(6-cyanopyridin-3-yl)methyl]bicyclo[1.1.1]pentane-1-carboxamide] | > 2000 |
| CC(C)c1ccc(CNC(=O)C23CC(NC(=O)COc4ccc(Cl)c(F)c4)(C2)C3)cc1 [Compound 227, 3-[2-(4-chloro-3-fluorophenoxy)acetamido]-N-{[4-(propan-2-yl)phenyl]methyl}bicyclo[1.1.1]pentane-1-carboxamide] | > 2000 |
| Cc1cnc(CNC(=O)C23CC(NC(=O)COc4ccc(Cl)c(F)c4)(C2)C3)cn1 [Compound 228, 3-[2-(4-chloro-3-fluorophenoxy)acetamido]-N-[(5-methylpyrazin-2-yl)methyl]bicyclo[1.1.1]pentane-1-carboxamide] | > 2000 |
| COCc1ccc(CNC(=O)C23CC(NC(=O)COc4ccc(Cl)c(F)c4)(C2)C3)cc1 [Compound 229, 3-[2-(4-chloro-3-fluorophenoxy)acetamido]-N-{[4-(methoxymethyl)phenyl]methyl]bicyclo[1.1.1]pentane-1-carboxamide] | > 2000 |
| CCc1csc(CCNC(=O)C23CC(NC(=O)COc4ccc(Cl)c(F)c4)(C2)C3)n1 [Compound 230, 3-[2-(4-chloro-3-fluorophenoxy)acetamido]-N-[2-(4-ethyl-1,3-thiazol-2-yl)ethyl]bicyclo[1.1.1]pentane-1-carboxamide] | > 2000 |
| O=C(COc1ccc(Cl)c(F)c1)NC12CC(C(=O)NCc3cc(F)cc(C(F)(F)F)c3)(C1)C2 [Compound 231, 3-[2-(4-chloro-3-fluorophenoxy)acetamido]-N-{[3-fluoro-5-(trifluoromethyl)phenyl]methyl}bicyclo[1.1.1]pentane-1-carboxamide] | > 2000 |
| COc1cccc(CNC(=O)C23CC(NC(=O)COc4ccc(Cl)c(F)c4)(C2)C3)n1 [Compound 232, 3-[2-(4-chloro-3-fluorophenoxy)acetamido]-N-[(6-methoxypyridin-2-yl]methyl]bicyclo[1.1.1]pentane-1-carboxamide] | > 2000 |
| O=C(COc1ccc(Cl)c(F)c1)NC12CC(C(=O)NCc3ccncc3)(C1)C2 [Compound 233, 3-[2-(4-chloro-3-fluorophenoxy)acetamido]-N-[(pyridin-4-yl]methyl]bicyclo[1.1.1]pentane-1-carboxamide] | > 2000 |
| O=C(COc1ccc(Cl)c(F)c1)NC12CC(C(=O)NCCc3ccncc3)(C1)C2 [Compound 234, 3-[2-(4-chloro-3-fluorophenoxy)acetamido]-N-[2-(pyridin-4-yl)ethyl]bicyclo[1.1.1]pentane-1-carboxamide] | > 2000 |
| O=C(COc1ccc(Cl)c(F)c1)NC12CC(C(=O)NCc3ccon3)(C1)C2 [Compound 235, 3-[2-(4-chloro-3-fluorophenoxy)acetamido]-N-[(1,2-oxazol-3-yl]methyl]bicyclo[1.1.1]pentane-1-carboxamide] | > 2000 |
| COc1ccc(OC)c(CNC(=O)C23CC(NC(=O)COc4ccc(Cl)c(F)c4)(C2)C3)c1 [Compound 236, 3-[2-(4-chloro-3-fluorophenoxy)acetamido]-N-[(2,5-dimethoxyphenyl]methyl]bicyclo[1.1.1]pentane-1-carboxamide] | > 2000 |
| O=C(COc1ccc(Cl)c(F)c1)NC12CC(C(=O)NCc3cccc(F)c3)(C1)C2 [Compound 237, 3-[2-(4-chloro-3-fluorophenoxy)acetamido]-N-[(3-fluorophenyl)methyl]bicyclo[1.1.1]pentane-1-carboxamide] | > 2000 |
| CCCCc1ccc(CNC(=O)C23CC(NC(=O)COc4ccc(Cl)c(F)c4)(C2)C3)cc1 [Compound 238, N-[(4-butylphenyl)methyl]-3-[2-(4-chloro-3-fluorophenoxy)acetamido]bicyclo[1.1.1]pentane-1-carboxamide] | > 2000 |
| O=C(COc1ccc(Cl)c(F)c1)NC12CC(C(=O)NCCc3ccc(F)cc3)(C1)C2 [Compound 239, 3-[2-(4-chloro-3-fluorophenoxy)acetamido]-N-[2-(4-fluorophenyl)ethyl]bicyclo[1.1.1]pentane-1-carboxamide] | > 2000 |
| CCOc1ccc(CNC(=O)C23CC(NC(=O)COc4ccc(Cl)c(F)c4)(C2)C3)cc1 [Compound 240, 3-[2-(4-chloro-3-fluorophenoxy)acetamido]-N-[(4-ethoxyphenyl)methyl]bicyclo[1.1.1]pentane-1-carboxamide] | > 2000 |
| O=C(COc1ccc(Cl)c(F)c1)NC12CC(C(=O)NCc3ccc(Cl)c(Cl)c3)(C1)C2 [Compound 241, 3-[2-(4-chloro-3-fluorophenoxy)acetamido]-N-[(3,4-dichlorophenyl]methyl]bicyclo[1.1.1]pentane-1-carboxamide] | > 2000 |
| O=C(COc1ccc(Cl)c(F)c1)NC12CC(C(=O)NCCc3cccnc3)(C1)C2 [Compound 242, 3-[2-(4-chloro-3-fluorophenoxy)acetamido]-N-[2-(pyridin-3-yl)ethyl]bicyclo[1.1.1]pentane-1-carboxamide] | > 2000 |
| O=C(COc1ccc(Cl)c(F)c1)NC12CC(C(=O)NCc3ccccc3OC(F)F)(C1)C2 [Compound 243, 3-[2-(4-chloro-3-fluorophenoxy)acetamido]-N-{[2-(difluoromethoxy)phenyl]methyl}bicyclo[1.1.1]pentane-1-carboxamide] | > 2000 |
| Cc1occc1CNC(=O)C12CC(NC(=O)COc3ccc(Cl)c(F)c3)(C1)C2 [Compound 244, 3-[2-(4-chloro-3-fluorophenoxy)acetamido]-N-[(2-methylfuran-3-yl)methyl]bicyclo[1.1.1]pentane-1-carboxamide] | > 2000 |
| O=C(COc1ccc(Cl)c(F)c1)NC12CC(C(=O)NCc3ccc(F)cc3)(C1)C2 [Compound 245, 3-[2-(4-chloro-3-fluorophenoxy)acetamido]-N-[(4-fluorophenyl)methyl]bicyclo[1.1.1]pentane-1-carboxamide] | > 2000 |
